Laboratory results: PMC5668434, “Modulation of telomere protection by the PI3K/AKT pathway” (Nature Communications, 2017)
pIC50: −log10 of the molar value.

Key:
[1] = tested on: TRF1 foci in p53−/− mouse embryo fibroblasts (MEF); experiment: TRF1 foci immunofluorescence in p53−/− MEFs; assay type: cell-based; settings: 10 μM, 24 h
Procedure: We then checked whether PI3Kα/AKT inhibition also leads to decreased TRF1 foci in an additional cell type to CHA-9.3 cells. Thus, we used p53 ^−/− mouse embryo fibroblasts (MEF). We treated these MEFs either with the AKT inhibitor MK-2206 or with ETP-47037 at 10 μM concentration for 24 h and analyzed TRF1 foci by immunofluorescence.
TRF1 immunofluorescence of TRF1 was performed in lung tumor-derived cell line (CHA9.3) and in MEFs[39]. A rat monoclonal antibody against mouse TRF1 developed by the Monoclonal antibody unit at CNIO was used to detect endogenous TRF1 (1:500). GFP-TRF1 fluorescence was directly measured in cells fixed in paraformaldehyde. For quantification of TRF1 foci intensity, pictures of fixed cells were automatically acquired from each well by the Opera HCS system (Perkin Elmer). Sixty images of random fields per well, with a 40× magnification lens, were taken under non-saturating conditions. At least 1 × 10^3 cells were analyzed for each well. Briefly, images were segmented using the DAPI staining to generate masks matching cell nuclei from which-TRF1 foci were analyzed.

[2] = tested on: TRF1 mRNA in CHA 9-3 lung cancer cells; experiment: TRF1 mRNA by qPCR; assay type: cell-based, mouse; settings: 10 μM, 24 h
[3] = tested on: TRF1 protein in p53−/− MEFs nuclear extracts; experiment: Western blot of nuclear TRF1 in p53−/− MEFs; assay type: cell-based, mouse; settings: 10 μM
Procedure: Blots were incubated with the primary antibodies anti-TRF1 1:500 (home-made monoclonal Rat, CNIO; TRF-78, ABCAM, ab10579) and with anti-SMC1 1:2000 (Bethyl Laboratories #A300-055A) as loading control. For nuclear protein preparation, the Nuclear/Cytosol Fractionation Kit (K266-100, BioVision) was used according to the manufactures protocol.

[4] = target: T1, PI3K-γ (p110γ) (Homo sapiens, UniProt P48736); experiment: PI3K isoforms biochemical assay (HTRF), PI3K-γ; settings: read-out: PI3Kγ IC50
T1 construct: purchased Invitrogen PV4787
Procedure: PI3Kα (p110α/p85α), PI3K-δ (p110δ/p85α), and PI3K-γ (p110γ) were purchased from Invitrogen (PV4789, PV 5274, and PV4787, respectively). PI3K-β (p110β/p85α) was obtained from Millipore (#14-603). The kinase activity was measured with the commercial PI3-kinase (human) HTRF™ assay available from Millipore (#33-017), following the manufacturer recommendations. The final enzyme concentration in the assay were 100 pM for PI3K-α and PI3K-δ, 500 pM for PI3K-β, and 4 nM for PI3K-γ. […] The enzyme was preincubated with the inhibitor and with 10 μM of PIP2 for 5 min. The enzymatic reaction was started by addition of ATP at 50 times the Km. The incubation was kept at 37 °C for 60 min. Stop solution and detection mix were added sequentially to the wells and plates were incubated 3 h in the dark at 25 °C. HTRF counts were measured in an EnVision reader (Perkin Elmer) using the recommended settings. Values were normalized against the control activity included for the enzyme (100% PI3 kinase activity, without compound). These values were plotted against the inhibitor concentration and were fit to a sigmoid dose-response curve by using Activity base software from IDBS.

[5] = tested on: aggressive lung cancer in mice; parameters: method as in PMID 25971796; settings: mice with aggressive lung cancer; cited from earlier work

T1 sequence (P48736 whole entry, canonical isoform): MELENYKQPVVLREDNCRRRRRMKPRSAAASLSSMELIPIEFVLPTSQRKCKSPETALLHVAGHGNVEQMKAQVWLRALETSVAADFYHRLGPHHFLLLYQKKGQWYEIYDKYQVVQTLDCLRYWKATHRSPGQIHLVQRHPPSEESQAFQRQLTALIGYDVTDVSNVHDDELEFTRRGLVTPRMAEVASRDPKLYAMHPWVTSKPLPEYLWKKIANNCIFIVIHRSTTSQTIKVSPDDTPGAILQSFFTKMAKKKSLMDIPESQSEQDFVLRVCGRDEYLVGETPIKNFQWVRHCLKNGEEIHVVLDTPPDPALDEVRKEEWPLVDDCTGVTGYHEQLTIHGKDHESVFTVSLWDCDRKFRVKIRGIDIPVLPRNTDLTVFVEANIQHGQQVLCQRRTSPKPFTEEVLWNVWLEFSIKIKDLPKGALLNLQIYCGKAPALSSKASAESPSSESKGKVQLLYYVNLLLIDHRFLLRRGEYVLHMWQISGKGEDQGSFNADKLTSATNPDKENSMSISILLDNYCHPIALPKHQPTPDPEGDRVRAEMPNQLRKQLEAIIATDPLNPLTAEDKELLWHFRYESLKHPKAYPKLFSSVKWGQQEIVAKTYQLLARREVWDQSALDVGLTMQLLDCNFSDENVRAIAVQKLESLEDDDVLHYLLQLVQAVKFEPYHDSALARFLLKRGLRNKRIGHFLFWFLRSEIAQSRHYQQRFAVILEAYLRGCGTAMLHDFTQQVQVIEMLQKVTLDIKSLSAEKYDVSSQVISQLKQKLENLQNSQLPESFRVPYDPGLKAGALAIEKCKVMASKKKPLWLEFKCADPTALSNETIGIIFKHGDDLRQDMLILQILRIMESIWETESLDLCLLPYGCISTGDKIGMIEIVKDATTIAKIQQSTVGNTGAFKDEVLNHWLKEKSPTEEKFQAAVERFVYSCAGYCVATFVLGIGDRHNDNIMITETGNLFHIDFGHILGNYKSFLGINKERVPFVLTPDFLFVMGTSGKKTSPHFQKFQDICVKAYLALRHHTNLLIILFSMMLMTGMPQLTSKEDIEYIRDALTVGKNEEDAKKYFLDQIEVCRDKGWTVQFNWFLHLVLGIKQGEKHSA

CS(=O)(=O)N1CCN(Cc2cc3c(N4CCOCC4)nc(-c4cnc(N)nc4)cn3n2)CC1 [ETP-47037]
Reduction in TRF1 foci intensity [1]: 34%
TRF1 mRNA levels [2]: None of the inhibitors significantly affected
Total nuclear TRF1 levels compared to DMSO [3]: decreased
pIC50 [4]: 7.31
Telomere TRF1 foci in vivo [5]: significantly decreased
Telomeric DNA damage in vivo [5]: induced telomeric DNA damage
Tumor growth as compared to non-treated mice [5]: blocked tumor growth
